Patent US5661136A, “2-halo-2'-fluoro ARA adenosines as antinoplastic agents” (priority 1994, dated 1997)
Like-named read-outs stand apart in the source and are kept apart here.

Columns and labels:
ribonucleotide reductase = target: T1, ribonucleotide reductase (Homo sapiens, UniProt P23921); details: cited from earlier work; for inhibition of ribonucleotide reductase (in words): 5'-triphosphate of the nucleoside analogue
T1 sequence (P23921 1-792): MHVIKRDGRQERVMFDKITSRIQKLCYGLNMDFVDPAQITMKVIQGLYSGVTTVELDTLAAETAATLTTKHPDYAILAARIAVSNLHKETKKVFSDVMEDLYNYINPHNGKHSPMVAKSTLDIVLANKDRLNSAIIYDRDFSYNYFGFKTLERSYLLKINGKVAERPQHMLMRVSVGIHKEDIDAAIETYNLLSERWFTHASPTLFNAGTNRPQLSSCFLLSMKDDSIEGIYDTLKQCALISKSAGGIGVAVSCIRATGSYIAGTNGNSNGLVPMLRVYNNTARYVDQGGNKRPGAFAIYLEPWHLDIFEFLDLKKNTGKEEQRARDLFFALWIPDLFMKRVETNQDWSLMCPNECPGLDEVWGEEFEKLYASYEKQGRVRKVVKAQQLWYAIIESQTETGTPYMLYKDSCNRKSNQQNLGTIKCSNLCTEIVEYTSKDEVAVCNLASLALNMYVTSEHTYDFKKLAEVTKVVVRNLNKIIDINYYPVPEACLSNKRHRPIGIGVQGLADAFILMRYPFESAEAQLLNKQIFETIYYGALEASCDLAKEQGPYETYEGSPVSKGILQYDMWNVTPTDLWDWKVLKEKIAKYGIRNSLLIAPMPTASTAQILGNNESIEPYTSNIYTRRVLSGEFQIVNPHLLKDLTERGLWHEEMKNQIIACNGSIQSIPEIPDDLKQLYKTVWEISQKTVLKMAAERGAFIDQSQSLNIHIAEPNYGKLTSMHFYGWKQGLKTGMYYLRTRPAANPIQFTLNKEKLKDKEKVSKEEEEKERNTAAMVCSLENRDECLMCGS

H.Ep.-2 = experiment: Cytotoxicity, inhibition of cell proliferation to 50% of untreated controls; assay type: cell-based, human
From the text: (§1) In contrast to the previously reported 2'-substituted 9-β-D-arabinofuranosyl-2-haloadenines, the 2'-fluoro compounds were quite cytotoxic to three human cell lines, H.Ep.-2, CCRF-CEM, and K562, and the murine lukemia line, L1210.
(§2) Obviously, to be useful as anticancer agents, the nucleosides of the present invention must show the ability to kill cells in vitro. […] One cell line (L1210) is a murine lukemia, whereas the other three are human neoplasms. […] Many people today emphasize the importance of toxicity to human cell lines.

CCRF-CEM = experiment: as above; assay type: cell-based, human; details: read-out: Cytotoxicity as IC50, CCRF-CEM
From the text: as §1, §2

L1210 = experiment: as above; assay type: cell-based; details: Mus musculus; L1210 murine leukemia line; read-out: Cytotoxicity as IC50, L1210
From the text: as §1, §2

[1] = target: E. coli purine nucleoside phosphorylase (Escherichia coli, UniProt P0ABP8); experiment: Phosphorolysis of nucleosides by purine nucleoside phosphorylase; assay type: biochemical; details: 0.5 mM nucleoside, 50 mM pH 8.0 phosphate buffer, HPLC, incubation 30-240 min, read-out: % Cleavage
Sequence of E. coli purine nucleoside phosphorylase (P0ABP8 2-239): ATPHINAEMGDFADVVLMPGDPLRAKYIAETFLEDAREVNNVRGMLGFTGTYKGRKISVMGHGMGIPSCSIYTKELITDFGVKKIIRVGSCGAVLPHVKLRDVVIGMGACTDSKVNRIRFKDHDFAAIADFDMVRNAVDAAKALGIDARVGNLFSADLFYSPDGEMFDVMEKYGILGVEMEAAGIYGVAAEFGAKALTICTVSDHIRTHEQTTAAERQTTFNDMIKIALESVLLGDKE
From the text: Subsequently, the phosphorolysis of these compounds were compared by E. coli purine nucleoside phosphorylase. The […] and 2'-deoxyribonucleosides are rapidly cleaved by this enzyme, whereas the […] nucleosides substituted at 2' by Cl, N3, or NH2 are almost completely resistant. The 2'-fluoro compounds are less resistant to cleavage, being cleaved at roughly one-third the rate of the […] and 2'-deoxynucleosides. This reduction in cleavage rate may be acceptable for pharmaceutical purposes as phosphorylation in mammalian cells is quite rapid.
More specifically, an enzyme reaction mixture consisting of 0.5 mM nucleoside substrate, 50 mM pH 8.0 phosphate buffer and purine nucleoside phosphorylase in a final volume of 1.0 mL was allowed to incubate for 30, 60, 120, 180 and 240 minutes, and the amounts of nucleoside and substrate remaining were determined by HPLC.

K562 = experiment: Cytotoxicity, inhibition of cell proliferation to 50% of untreated controls; assay type: cell-based, human
From the text: as §1, §2

P388 leukemia [2] = experiment: In vivo activity vs ip P388 leukemia, ip administration; design: species or system CD2F1 mice
From the text: This, coupled with the lower toxicity of the cleavage product, 2-chloroadenine, relative to 2-fluoroadenine, make this compound a preferred compound of the present invention. The following Table III provides a summary of the in vivo activity of the 9-(2-fluoro-2-deoxy-β-D-arabinofuranosyl)-2-haloadenines vs P388 leukemia cell line in which CD2F1 mice were implanted ip with 10^6 P388 leukemia cells on day 0 in accordance with the protocol of Waud et al [Cancer Res. 50:3232 (1990)].
In the above table, the optimal dose refers to mg/kg/dose (≤LD50); ILS refers to the increase in life span; and the log change refers to the change in viable tumor cell population at the end of therapy compared to that at the start of therapy, based on the median day of death among the animals that died. The data in this table is presented in accordance with the National Cancer Institute activity criteria for drug testing in which an ILS of 20-74% is considered moderate activity, and an ILS of 75% or more is considered good activity.

P388 leukemia [3] = experiment: Antitumor activity against ip P388 leukemia, oral administration; assay type: in vivo, mice; details: oral 67 mg/kg/dose
Method: In a similar test, compound 3d was administered orally and evaluated for antitumor activity against ip P388 leukemia cells. As the data in Table III indicates, the optimal regimen for the compound, administered ip, is in divided doses five on days 1, 5, and 9, a similar schedule was selected for the oral administration of this compound. In this set of experiments, an oral dosage of 67 mg/kg/dose, given q 6 h×4 on days 1, 5, and 9, effected a reduction in tumor burden of 1.7 log10 units, a figure which is approximately 2.5 log10 units less that that obtained in studies using ip drug administration.

K562 cells = details: cited from earlier work
[4] = relative to 9-β-D-arabinofuranosyl-2-fluoroadenine; cited from earlier work
[5] = HEp-2, H.Ep.-2 human cell line, read-out: Cytotoxicity as IC50, H.Ep.-2
[6] = K562 human cell line, read-out: Cytotoxicity as IC50, K562
[7] = 30 mg/kg/dose ip, q 3 h × 8 (Days 1, 5, 9)
[8] = 50 mg/kg/dose ip, q 3 h × 8 (Days 1, 5, 9)
[9] = 20 mg/kg/dose ip, q 3 h × 8 (Days 1, 5, 9)
[10] = 25 mg/kg/dose ip, q 3 h × 8 (Days 1, 5, 9)

## Nc1nc(Cl)nc2c1ncn2[C@@H]1O[C@H](COP(=O)(O)OP(=O)(O)OP(=O)(O)O)[C@@H](O)[C@@H]1F [2-chloro-9-(2-deoxy-2-fluoro-β-D-arabinofuranosyl)adenine 5'triphosphate]
Ribonucleotide reductase
  inhibition of ribonucleotide reductase (in words): the same as that seen with 2-chloro-2'-deoxyadenosine 5'-triphosphate

## Nc1nc(F)nc2c1ncn2[C@@H]1O[C@H](COP(=O)(O)OP(=O)(O)OP(=O)(O)O)[C@@H](O)[C@@H]1O [9-β-D-arabinofuranosyl-2-fluoroadenine 5'triphosphate]
Ribonucleotide reductase
  inhibition of ribonucleotide reductase (in words): much less potent inhibitor
Ribonucleotide reductase; ratio of concentrations required
  concentration inhibiting ribonucleotide reductase relative to 2-chloro-9-(2-deoxy-2-fluoro-β-D-arabinofuranosyl)adenine 5' triphosphate: 10 fold

## Nc1nc(Br)nc2c1ncn2[C@H]1C[C@H](O)[C@@H](CO)O1 [Y = Br, X = H]
H.Ep.-2; [5]
  IC50: 20 nM
CCRF-CEM; CCRF-CEM human cell line
  IC50: 20 nM
L1210
  IC50: 900 nM

## Nc1nc(Br)nc2c1ncn2[C@@H]1O[C@H](CO)[C@@H](O)[C@@H]1O [Y = Br, X = OH]
H.Ep.-2; [5]
  IC50: 4000 nM
L1210
  IC50: 3000 nM

## Nc1nc(Cl)nc2c1ncn2[C@H]1C[C@H](O)[C@@H](CO)O1 [Y = Cl, X = H, 2-chloro-2'-deoxyadenosine]
H.Ep.-2; [5]
  IC50: 30 nM
CCRF-CEM; CCRF-CEM human cell line
  IC50: 3 nM
L1210
  IC50: 70 nM
[1]
  metabolised at 500 µM: > 99%

## Nc1nc(Cl)nc2c1ncn2[C@@H]1O[C@H](CO)[C@@H](O)[C@@H]1O [Y = Cl, X = OH]
H.Ep.-2; [5]
  IC50: 3000 nM
CCRF-CEM; CCRF-CEM human cell line
  IC50: 10000 nM
L1210
  IC50: < 3000 nM

## Nc1nc(F)nc2c1ncn2[C@H]1C[C@H](O)[C@@H](CO)O1 [Y = F, X = H, 2-fluoro-2'-deoxyadenosine]
H.Ep.-2; [5]
  IC50: 200 nM
CCRF-CEM; CCRF-CEM human cell line
  IC50: 200 nM
L1210
  IC50: 900 nM
[1]
  metabolised at 500 µM: > 99%

## Nc1nc(F)nc2c1ncn2[C@@H]1O[C@H](CO)[C@@H](O)[C@@H]1O [Y = F, X = OH, 2-fluoro-9-β-D-arabinofuranosyladenine, reference compound]
H.Ep.-2; Homo sapiens, HEp-2, read-out: Cytotoxicity as IC50, H.Ep.-2
  IC50: 9000 nM
K562; Homo sapiens, K562, read-out: Cytotoxicity as IC50, K562
  IC50: 150 nM
CCRF-CEM; Homo sapiens, CCRF-CEM
  IC50: 400 nM
[1]
  metabolised at 500 µM: 99%

## Nc1nc(Br)nc2c1ncn2[C@@H]1O[C@H](CO)[C@@H](O)[C@@H]1F [compound 3b, 2-Bromo-9-(2-deoxy-2-fluoro-β-D-arabinofuranosyl)-9H-purin-6-amine]
H.Ep.-2; [5]
  IC50: 220 nM
K562; [6]
  IC50: 50 nM
CCRF-CEM; CCRF-CEM human cell line
  IC50: 20 nM
L1210
  IC50: 260 nM
[1]
  metabolised at 500 µM: 45%
P388 leukemia [2]; [7]
  Log10 change in viable tumor cell population: -1.0
  Median % ILS (dying mice only): +100%
  Tumor-free Survivors: 0/6
P388 leukemia [2]; [8]
  Log10 change in viable tumor cell population: +1.6
  Median % ILS (dying mice only): +41%
  Tumor-free Survivors: 0/6
P388 leukemia [2]; 200 mg/kg/dose ip, qd 1-5
  Log10 change in viable tumor cell population: +0.1
  Median % ILS (dying mice only): +33%
  Tumor-free Survivors: 0/6

## Nc1nc(Cl)nc2c1ncn2[C@@H]1O[C@H](CO)[C@@H](O)[C@@H]1F [compound 3d, 2-Chloro-9-(2-deoxy-2-fluoro-B-D-arabinofuranosyl)-2,0 9H-purin-6-amine]
P388 leukemia [3]; q 6 h×4 on days 1, 5, and 9
  reduction in tumor burden: 1.7 log10 units
P388 leukemia [3]; q 6 h×4 on days 1, 5, and 9, compared with ip
  reduction in tumor burden, shortfall versus ip drug administration: approximately 2.5 log10 units
H.Ep.-2; [5]
  IC50: 12 nM
K562; [6]
  IC50: 3 nM
CCRF-CEM; CCRF-CEM human cell line
  IC50: 50 nM
K562 cells
  inhibition of DNA synthesis: inhibits DNA synthesis
[4]
  solubility (in words): greater solubility
L1210
  IC50: 230 nM
[1]
  metabolised at 500 µM: 39%
P388 leukemia [2]; [9]
  Log10 change in viable tumor cell population: -6.6
  Median % ILS (dying mice only): +220%
  Tumor-free Survivors: 1/6
P388 leukemia [2]; [10]
  Log10 change in viable tumor cell population: -2.8
  Median % ILS (dying mice only): +118%
  Tumor-free Survivors: 0/5
P388 leukemia [2]; 100 mg/kg/dose ip, qd 1-5
  Log10 change in viable tumor cell population: -0.3
  Median % ILS (dying mice only): +38%
  Tumor-free Survivors: 0/5
P388 leukemia [2]; 200 mg/kg/dose ip, qd 1-5
  Log10 change in viable tumor cell population: -1.6
  Median % ILS (dying mice only): +59%
  Tumor-free Survivors: 0/3

## Nc1nc(F)nc2c1ncn2[C@@H]1O[C@H](CO)[C@@H](O)[C@@H]1F [compound 3g, 2-Fluoro-9-(2-deoxy-2-fluoro-β-D-arabinofuranosyl)-9H-purin-6-amine]
H.Ep.-2; [5]
  IC50: 340 nM
K562; [6]
  IC50: 300 nM
CCRF-CEM; CCRF-CEM human cell line
  IC50: 140 nM
L1210
  IC50: 380 nM
[1]
  metabolised at 500 µM: 10%
P388 leukemia [2]; [10]
  Log10 change in viable tumor cell population: -0.1
  Median % ILS (dying mice only): +81%
  Tumor-free Survivors: 0/6
P388 leukemia [2]; 100 mg/kg/dose ip, qd 1-5
  Log10 change in viable tumor cell population: -1.8
  Median % ILS (dying mice only): +63%
  Tumor-free Survivors: 0/3
